Read-outs that look alike come from different tables or passages of the source.
Tests used:
Assay type in all cases: cell-based
[1] = system: AncSR1-LBD; assay: luciferase reporter gene assay, Gal4-DBD fusion of AncSR1-LBD in CHO-K1 cells, activation; conditions: for EC50: AncSR1, representative dose activation curves (Fig. S3) and Table S5 section b; for activation of AncSR1 (in words): luciferase reporter; for activation (in words): AncSR1-ML, fold activation at 10^-6 M, Fig. S5C
From the text: (§1) To experimentally test these hypotheses, we synthesized cDNAs for the AncSR1 and AncSR2 LBD protein sequences, expressed them as Gal4-DBD fusion constructs, and characterized their sensitivity to hormones using luciferase reporter gene assays.

[2] = system: AncSR2-LBD; assay: luciferase reporter gene assay, Gal4-DBD fusion of AncSR2-LBD in CHO-K1 cells, activation; conditions: for Ratio H1/H2 of EC50, preference for 19-H vs. 19-methyl group / Ratio H2/H1 of EC50, preference for 19-H vs. 19-methyl group: AncSR2, Table S5 section i, pairs H1/H2: 8/6, 17/13, 18/15; for EC50: AncSR2, representative dose activation curves (Fig. S4) and Table S5 sections c-i; for activation of AncSR2 (in words): luciferase reporter; for Ratio H1/H2 of EC50, preference for 17-acetyl vs. 17-hydroxy group / Ratio H2/H1 of EC50, preference for 17-acetyl vs. 17-hydroxy group: AncSR2, Table S5 section d, pairs H1/H2: 13/6, 17/8, 15/9, 16/10, 19/23; for Ratio H1/H2 of EC50, preference for 3-hydroxy vs. 3-keto group / Ratio H2/H1 of EC50, preference for 3-hydroxy vs. 3-keto group: AncSR2, Table S5 section e, pairs H1/H2: 18/17, 9/6, 15/13; for Ratio H1/H2 of EC50, preference for 21-OH group vs. H group / Ratio H2/H1 of EC50, preference for 21-OH group vs. H group: AncSR2, Table S5 section f, pairs H1/H2: 1/6, 2/7; for Ratio H1/H2 of EC50, preference for 11-OH vs. H group / Ratio H2/H1 of EC50, preference for 11-OH vs. H group: AncSR2, Table S5 section g, pairs H1/H2: 1/3, 2/4
From the text: as §1, with “assays. […] It was unresponsive to a broad array of androgens, progestagens, and corticosteroids, as well as cholesterol (Figure 2A, Figure S3).” for “assays.”
For AncSR2, we identified all plausible alternate reconstructions (those with posterior probability >0.20 excluding biochemically similar K/R, D/E, S/T, and I/L differences) and introduced each alternate state individually into the AncSR2 background using the Quikchange Mutagenesis kit (Stratagene), verified clones by sequencing, and repeated the activation assays with each version of AncSR2 (Figure S6). The ML AncSR2 sequence reconstructed on the ML tree had high baseline activation in the absence of ligand; this phenotype is almost certainly an artifact, because constitutive baseline activity is not present in any of AncSR2's extant descendants; it is well-established that some amino acid replacements can cause nuclear receptors to become constitutive by marginally stabilizing the active conformation in the absence of hormone. […] The “constitutive” Leu79 state is weakly supported on the ML tree (PP = 0.59), and has no support (PP = 0.00) on the phylogeny that is most parsimonious in terms of gene duplications and losses; in contrast, the “non-constitutive” state Met79 has PP = 0.41 on the ML tree and PP = 1.00 on the rearranged gene duplication/loss tree (Figure S12, Table S8). The AncSR2 sequence used for all experiments reported in the text therefore contains state Met79. The other alternate reconstructions were then reintroduced into this AncSR2 sequence: none qualitatively changed the receptor's sensitivity to the various classes of steroid hormones, except for A171V, which conferred constitutive activity (Figure S6).

[3] = system: AncSR1_Alt1; assay: luciferase reporter assay, alternative reconstruction AncSR1_Alt1; conditions: Alt1, fold activation at 10^-6 M, Fig. S5C
From the text: (§2) To determine the robustness of functional inferences to statistical uncertainty in the reconstruction of AncSR1 and AncSR2, we used two approaches. AncSR1 had too many ambiguously reconstructed sites to examine each such residue individually, so we computationally sampled from the posterior probability distribution of reconstructed amino acid states to generate a cloud of possible ancestral sequences, each harboring a large number of alternate states. Specifically, we generated 1,000,000 possible ancestral sequences by sampling from the posterior probability distribution of states at each site. […] We synthesized these five radically alternative ancestral reconstructions de novo and repeated the functional assays.
(§3) A) Distribution of posterior probabilities of 1 million protein sequences assembled by sampling amino acid states at each site from the posterior probability distribution for AncSR1 LBD. The ML reconstruction (AncSR1-ML) and the five alternative sequences with the highest posterior probability (Alt1-Alt5) in the 1 million samples are […]
(§4) The column height and error bars indicate the mean and SEM of three independent experiments, respectively. […]

[4] = system: AncSR1_Alt4; assay: luciferase reporter assay, alternative reconstruction AncSR1_Alt4; conditions: Alt4, fold activation at 10^-6 M, Fig. S5C
From the text: as §2, §3, §4

[5] = system: AncSR1_Alt2; assay: luciferase reporter assay, alternative reconstruction AncSR1_Alt2; conditions: Alt2, fold activation at 10^-6 M, Fig. S5C
From the text: as §2, §3, §4

[6] = system: AncSR1_Alt3; assay: luciferase reporter assay, alternative reconstruction AncSR1_Alt3; conditions: Alt3, fold activation at 10^-6 M, Fig. S5C
From the text: as §2, §3, §4

[7] = system: AncSR1_Alt5; assay: luciferase reporter assay, alternative reconstruction AncSR1_Alt5; conditions: Alt5, fold activation at 10^-6 M, Fig. S5C
From the text: as §2, §3, §4

[8] = AncSR1, Table S5 section b, pairs H1/H2: 18/19, 22/20, 8/23, listed as given under Hormone 1
[9] = listed as given under Hormone 1
[10] = AncSR2, Table S5 section h, pairs H1/H2: 3/4, 6/7, listed as given under Hormone 1

CC(=O)C1CCC2C3CCC4=CC(=O)CCC4C3CCC12C (stereo not drawn) [19-norprogesterone]
Ratio H2/H1 of EC50, preference for aromatized A-ring [1, 8]: 0.02 | EC50 [1]: > 10000 nM | Ratio H1/H2 of EC50, preference for 19-H vs. 19-methyl group [2, 9]: 0.29 | Ratio H2/H1 of EC50, preference for 19-H vs. 19-methyl group [2, 9]: 3.44 | EC50 [2]: 1.6 nM

O=c1c(-c2ccc(O)cc2)coc2cc(O)cc(O)c12 [Genistein]
activation of AncSR1 (in words) [1]: activated | activation of AncSR2 (in words) [2]: not activated

CC(=O)[C@@]1(O)CC[C@H]2[C@@H]3CCC4=CC(=O)CC[C@]4(C)[C@H]3CC[C@@]21C [17α-hydroxyprogesterone]
EC50 ([2]; read-out: EC50): 19 nM

C[C@]12CC[C@H]3[C@@H](CCC4=CC(=O)CC[C@@]43C)[C@@H]1CC[C@@H]2O [testosterone]
activation (in words) [3]: none are activated | activation (in words) [4]: none are activated | activation (in words) [5]: none are activated | activation (in words) [1]: none are activated | activation (in words) [6]: none are activated | Ratio H1/H2 of EC50, preference for 17-acetyl vs. 17-hydroxy group [2, 9]: 21.09 | Ratio H2/H1 of EC50, preference for 17-acetyl vs. 17-hydroxy group [2, 9]: 0.05 | EC50 [2]: 116 nM | activation (in words) [7]: none are activated

CC12CCC3C4CCC(O)C=C4CCC3C1CCC2O (stereo not drawn) [bolandiol]
Ratio H1/H2 of EC50, preference for aromatized A-ring [1, 8]: 36.02 | Ratio H2/H1 of EC50, preference for aromatized A-ring [1, 8]: 0.03 | EC50 [1]: 1760 nM | Ratio H1/H2 of EC50, preference for 3-hydroxy vs. 3-keto group [2, 9]: 0.29 | Ratio H2/H1 of EC50, preference for 3-hydroxy vs. 3-keto group [2, 9]: 3.45 | Ratio H1/H2 of EC50, preference for 19-H vs. 19-methyl group [2, 9]: 0.08 | Ratio H2/H1 of EC50, preference for 19-H vs. 19-methyl group [2, 9]: 13.10 | EC50 [2]: 20 nM

C[C@]12CCC(=O)C=C1CC[C@@H]1[C@@H]2CC[C@@]2(C)[C@H]1CC[C@]2(O)C(=O)CO [11-deoxycortisol]
Ratio H1/H2 of EC50, preference for 21-OH group vs. H group [2, 9]: 0.08 | Ratio H2/H1 of EC50, preference for 21-OH group vs. H group [2, 9]: 12.67 | Ratio H1/H2 of EC50, preference for 11-OH vs. H group [2, 9]: 0.15 | Ratio H2/H1 of EC50, preference for 11-OH vs. H group [2, 9]: 6.53 | EC50 ([2]; read-out: EC50): 1.5 nM

CC(C)CCC[C@@H](C)[C@H]1CC[C@H]2[C@@H]3CC=C4C[C@@H](O)CC[C@]4(C)[C@H]3CC[C@]12C [cholesterol]
activation of AncSR1 (in words) [1]: unresponsive | activation of AncSR2 (in words) [2]: completely unresponsive

C[C@]12C[C@H](O)[C@H]3[C@@H](CCC4=CC(=O)CC[C@@]43C)[C@@H]1CC[C@@H]2C(=O)CO [corticosterone]
Ratio H1/H2 of EC50, preference for 17a-H group vs. -OH group [2, 10]: 0.03 | Ratio H2/H1 of EC50, preference for 17a-H group vs. -OH group [2, 10]: 31.61 | EC50 ([2]; read-out: EC50): 0.31 nM

C[C@H](O)[C@H]1CC[C@H]2[C@@H]3CCC4=CC(=O)CC[C@]4(C)[C@H]3CC[C@]12C [20α hydroxyprogesterone]
EC50 ([2]; read-out: EC50): 19 nM

C[C@]12CC[C@H]3[C@@H](CCC4=C[C@@H](O)CC[C@@]43C)[C@@H]1CC[C@@H]2O [4-androstenediol]
Ratio H1/H2 of EC50, preference for 17-acetyl vs. 17-hydroxy group [2, 9]: 119.09 | Ratio H2/H1 of EC50, preference for 17-acetyl vs. 17-hydroxy group [2, 9]: 0.01 | Ratio H1/H2 of EC50, preference for 3-hydroxy vs. 3-keto group [2, 9]: 2.26 | Ratio H2/H1 of EC50, preference for 3-hydroxy vs. 3-keto group [2, 9]: 0.44 | EC50 [2]: 262 nM

CC(=O)[C@H]1CC[C@H]2[C@@H]3CCC4=CC(=O)CC[C@]4(C)[C@H]3CC[C@]12C [progesterone]
activation (in words) [3]: none are activated | activation (in words) [4]: none are activated | activation (in words) [5]: none are activated | activation (in words) [1]: none are activated | activation (in words) [6]: none are activated | EC50 ([2]; read-out: EC50): 5.5 nM | activation (in words) [7]: none are activated

11-deoxycorticosterone
activation (in words) [3]: none are activated | activation (in words) [4]: none are activated | activation (in words) [5]: none are activated | activation (in words) [1]: none are activated | activation (in words) [6]: none are activated | EC80 ([2]; AncSR2, 11-deoxycorticosterone concentration used in inhibition assay): 1.7 nM | Ratio H1/H2 of EC50, preference for 21-OH group vs. H group [2, 9]: 0.08 | Ratio H2/H1 of EC50, preference for 21-OH group vs. H group [2, 9]: 13.10 | Ratio H1/H2 of EC50, preference for 11-OH vs. H group [2, 9]: 1.35 | Ratio H2/H1 of EC50, preference for 11-OH vs. H group [2, 9]: 0.74 | EC50 ([2]; read-out: EC50): 0.42 nM | activation (in words) [7]: none are activated

Reference: publication PMC3499368, “Evolution of Minimal Specificity and Promiscuity in Steroid Hormone Receptors” (PLoS Genetics, 2012)
